According to ChEMBL document CHEMBL4118287, “Polysaccharide deacetylases serve as new targets for the design of inhibitors against Bacillus anthracis and Bacillus cereus” (Bioorg Med Chem, 2018):
≈ marks a conversion by molar mass, not a printed value. Calls of active or inactive are those of the source. No cut-off for these calls is given here.

Columns and labels:
Bacillus anthracis [1] = assay: Inhibition of Bacillus anthracis 7702 BA1977 assessed as induction of lysozyme sensitivity at 10 to 50 uM incubated for 250 mins under shaking condition measured every 30 mins
Bacillus anthracis [2] = assay: Inhibition of Bacillus anthracis 7702 BA1977 assessed as induction of lysozyme sensitivity at 50 uM incubated for 250 mins under shaking condition measured every 30 mins
[3] = target: T1, Peptidoglycan-N-acetylglucosamine deacetylase BC_1974 (Bacillus cereus (strain ATCC 14579 / DSM 31 / JCM 2152 / NBRC 15305 /NCIMB 9373 / NRRL B-3711), UniProt Q81EJ6); assay: Inhibition of recombinant Bacillus cereus BC1974 expressed in Escherichia coli using GlcNAc5 as substrate measured after 5 mins by fluorescamine based fluorescence assay
T1 sequence (Q81EJ6 whole entry): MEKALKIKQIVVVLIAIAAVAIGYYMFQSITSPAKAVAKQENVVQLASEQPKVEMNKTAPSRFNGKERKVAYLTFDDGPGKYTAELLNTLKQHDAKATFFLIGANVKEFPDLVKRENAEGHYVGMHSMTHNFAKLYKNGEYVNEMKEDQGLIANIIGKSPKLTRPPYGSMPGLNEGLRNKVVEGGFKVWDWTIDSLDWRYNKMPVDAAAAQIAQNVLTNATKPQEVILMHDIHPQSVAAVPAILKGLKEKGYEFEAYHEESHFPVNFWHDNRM

[4] = target: T2, Peptidoglycan-N-acetylglucosamine deacetylase BC_1960 (Bacillus cereus (strain ATCC 14579 / DSM 31 / JCM 2152 / NBRC 15305 /NCIMB 9373 / NRRL B-3711), UniProt Q81EK9); assay: Inhibition of recombinant Bacillus cereus BC1960 expressed in Escherichia coli using GlcNAc5 as substrate measured after 10 mins by fluorescamine based fluorescence assay
T2 sequence (Q81EK9 whole entry): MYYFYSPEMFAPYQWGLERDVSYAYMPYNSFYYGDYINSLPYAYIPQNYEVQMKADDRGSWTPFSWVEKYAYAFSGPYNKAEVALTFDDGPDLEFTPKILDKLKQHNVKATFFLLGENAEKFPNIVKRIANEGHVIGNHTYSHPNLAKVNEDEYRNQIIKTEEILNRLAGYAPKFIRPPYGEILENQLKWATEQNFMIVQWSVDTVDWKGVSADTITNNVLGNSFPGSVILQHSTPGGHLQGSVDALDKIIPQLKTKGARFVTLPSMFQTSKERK

[5] = target: T1, Peptidoglycan-N-acetylglucosamine deacetylase BC_1974; assay: Competitive inhibition of recombinant Bacillus cereus BC1974 expressed in Escherichia coli using varying levels of GlcNAc5 as substrate measured after 5 mins in presence of fluorescamine by Line-weaver burk plot analysis; conditions: read-out: Ki(app)
[6] = target: T2, Peptidoglycan-N-acetylglucosamine deacetylase BC_1960; assay: Competitive inhibition of recombinant Bacillus cereus BC1960 expressed in Escherichia coli using varying levels of GlcNAc5 as substrate measured after 10 mins in presence of fluorescamine by Line-weaver burk plot analysis; conditions: read-out: Ki(app)
Bacillus cereus [7] = assay: Antibacterial activity against Bacillus cereus ATCC 14579 measured after 16 hrs in absence of lysozyme; format: functional; conditions: ATCC 14579, 16 h
Bacillus anthracis [8] = assay: Antibacterial activity against Bacillus anthracis 7702 measured after 16 hrs in absence of lysozyme; format: functional; conditions: Bacillus anthracis, 7702, 16 h
Bacillus cereus [9] = assay: Bactericidal activity against Bacillus cereus ATCC 14579 measured after 72 hrs in absence of lysozyme; format: functional; conditions: ATCC 14579, 72 h
Bacillus anthracis [10] = assay: Bactericidal activity against Bacillus anthracis 7702 measured after 72 hrs in absence of lysozyme; format: functional; conditions: Bacillus anthracis, 7702, 72 h
Bacillus cereus [11] = assay: Antibacterial activity against Bacillus cereus ATCC 14579 measured after 16 hrs in presence of lysozyme; format: functional; conditions: ATCC 14579, 16 h
Bacillus anthracis [12] = assay: Antibacterial activity against Bacillus anthracis 7702 measured after 16 hrs in presence of lysozyme; format: functional; conditions: Bacillus anthracis, 7702, 16 h
Bacillus cereus [13] = assay: Bactericidal activity against Bacillus cereus ATCC 14579 measured after 72 hrs in presence of lysozyme; format: functional; conditions: ATCC 14579, 72 h
Bacillus anthracis [14] = assay: Bactericidal activity against Bacillus anthracis 7702 measured after 72 hrs in presence of lysozyme; format: functional; conditions: Bacillus anthracis, 7702, 72 h
Bacillus cereus [15] = assay: Ratio of MBC to MIC for Bacillus cereus ATCC 14579 measured after 16 hrs in absence of lysozyme; format: functional
Bacillus anthracis [16] = assay: Ratio of MBC to MIC for Bacillus anthracis 7702 measured after 16 hrs in absence of lysozyme; format: functional
Bacillus cereus [17] = assay: Ratio of MBC to MIC for Bacillus cereus ATCC 14579 measured after 16 hrs in presence of lysozyme; format: functional
Bacillus anthracis [18] = assay: Ratio of MBC to MIC for Bacillus anthracis 7702 measured after 16 hrs in presence of lysozyme; format: functional
Bacillus cereus [19] = assay: Antibacterial activity against Bacillus cereus ATCC 14579 assessed as production of longer chains of daughter cells at 40 ug/ml incubated 16 hrs under shaking condition by scanning electron microscopic analysis; format: functional, organism-based
[20] = compound: O=C(NO)c1ccc(-c2cccc3ccccc23)cc1; assay: Competitive inhibition of recombinant Bacillus cereus BC1974 expressed in Escherichia coli assessed as substrate Km at 20 uM using varying levels of GlcNAc5 as substrate measured after 5 mins in presence of fluorescamine by Line-weaver burk plot analysis
[21] = compound: O=C(NO)c1ccc(-c2cccc3ccccc23)cc1; assay: Competitive inhibition of recombinant Bacillus cereus BC1974 expressed in Escherichia coli assessed as substrate Km at 40 uM using varying levels of GlcNAc5 as substrate measured after 5 mins in presence of fluorescamine by Line-weaver burk plot analysis

O=C(NO)c1cccc(-c2ccccc2)c1
inhibition (Bacillus anthracis [1]): inactive

O=C(NO)c1cccc(Oc2ccccc2)c1
inhibition (Bacillus anthracis [1]): inactive

O=C(NO)c1cccc2ccccc12
inhibition (Bacillus anthracis [1]): inactive

O=C(NO)c1ccc(-c2cccc3ccccc23)cc1
inhibition (Bacillus anthracis [2]): Active | IC50 [3]: 43.3 µM | IC50 [4]: 132 µM | Ki [5]: 8.7 µM | Ki [6]: 66 µM | MIC (Bacillus cereus [7]): 6.58 µg/mL (≈ 25 µM) | MIC (Bacillus anthracis [8]): 7.89 µg/mL (≈ 30 µM) | MBC (Bacillus cereus [9]): 8.23 µg/mL (≈ 31.3 µM) | MBC (Bacillus anthracis [10]): 8.23 µg/mL (≈ 31.3 µM) | MIC (Bacillus cereus [11]): 5.26 µg/mL | MIC (Bacillus anthracis [12]): 6.58 µg/mL | MBC (Bacillus cereus [13]): 8.23 µg/mL | MBC (Bacillus anthracis [14]): 8.23 µg/mL | Ratio (Bacillus cereus [15]): <4 | Ratio (Bacillus anthracis [16]): <4 | Ratio (Bacillus cereus [17]): <4 | Ratio (Bacillus anthracis [18]): <4 | Activity (Bacillus cereus [19]): Active

B1: Peptidoglycan-N-acetylglucosamine deacetylase BC_1974 (Bacillus cereus (strain ATCC 14579 / DSM 31 / JCM 2152 / NBRC 15305 /NCIMB 9373 / NRRL B-3711)), Q81EJ6 (protein)
chain: T1 sequence (Q81EJ6 whole entry)
Km [20]: 22.8 µM | Km [21]: 42 µM
